Patent US20140248252A1, “New Salt And Medical Use” (Pfizer Limited, priority 2011, published 2014)

What was measured:
[1] = test system: uric acid in urine; test: Multiple dose study (TS, 14 days): fraction of uric acid excreted in urine; type: in vivo, human; settings: for Fraction excreted of uric acid: urine
Description: (§1) Multiple oral doses of 4-[2-(5-amino-1H-pyrazol-4-yl)-4-chlorophenoxy]-5-chloro-2-fluoro-N-(1,3-thiazol-4-yl)benzenesulfonamide TS dispersion for oral administration, and placebo, were investigated for 14 days, as follows: • healthy subjects, 300 mg twice daily (BID,) • healthy subjects, 450 mg BID, and • elderly subjects, 300 mg BID.
(§2) Subjects were fasted overnight prior to the morning doses and for at least 2 hours prior to the evening doses. Food was withheld for at least 2 hours postdose.
Uric acid was also measured in urine collected over 24 hours prior to dosing on Day 1, and then on Days 6, 14 and 16. The percent excreted fraction of uric acid in urine was calculated and analyzed with a linear mixed effects model.

[2] = test system: uric acid in blood; test: Multiple dose study (TS, 14 days): uric acid in blood of healthy and elderly subjects; type: in vivo, human
Description: (§3) Uric acid measurements were performed using a commercial colorimetric assay kit (Beckman Coulter).
as §1, §2
A total of 49 subjects were enrolled in the study of which 39 received 4-[2-(5-amino-1H-pyrazol-4-yl)-4-chlorophenoxy]-5-chloro-2-fluoro-N-(1,3-thiazol-4-yl)benzenesulfonamide TS and 10 received placebo.

[3] = Stability of the tosylate salt versus free base and other salts; type: physicochemical
[4] = test system: uric acid in blood; test: Single dose study: uric acid in blood of healthy subjects (colorimetric assay kit); type: in vivo, human; settings: fasted
Description: as §3
Single doses of 4-[2-(5-amino-1H-pyrazol-4-yl)-4-chlorophenoxy]-5-chloro-2-fluoro-N-(1,3-thiazol-4-yl)benzenesulfonamide SDD (‘SDD’) dispersion for oral administration, ranging from 10 mg to 2400 mg, were investigated. In addition, single doses of 4-[2-(5-amino-1H-pyrazol-4-yl)-4-chlorophenoxy]-5-chloro-2-fluoro-N-(1,3-thiazol-4-yl)benzenesulfonamide tosylate (‘TS’) dispersion for oral administration, ranging from 200 mg to 1000 mg, were also investigated.
The following doses were investigated and all doses were given in the fasted state with the exception of 200 mg and 1000 mg SDD dispersions, which were given in both the fasted state and after a high-fat meal (‘fed’).
A total of 61 subjects (all male) participated and all received at least one dose of SDD or TS dispersion for oral administration.
Mean data of uric acid levels per dose group are given as follows: • SDD fasted: Table 5 • SDD fed and fasted Table 6 • TS Table 7

[5] = Aqueous solubility of the tosylate salt; type: physicochemical
[6] = test system: uric acid in urine; test: Multiple dose study (TS, 14 days): fraction of uric acid excreted in urine; type: in vivo, human; settings: day 10
[7] = test system: uric acid in blood; test: Multiple dose study (SDD, 14 days): uric acid in blood of healthy subjects; type: in vivo, human; settings: 600 mg BID; 30 subjects enrolled in the study
Description: as §3
Multiple oral doses of 100 mg twice daily (BID), 300 mg BID, and 600 mg BID of 4-[2-(5-amino-1H-pyrazol-4-yl)-4-chlorophenoxy]-5-chloro-2-fluoro-N-(1,3-thiazol-4-yl)benzenesulfonamide SDD dispersion for oral administration, and placebo, were investigated for 14 days. Subjects were fasted overnight prior to the morning doses and for at least 2 hours prior to the evening doses. Food was withheld for at least 2 hours postdose.
A total of 30 subjects (all male) were enrolled in the study and 27 subjects completed the study (three subjects were withdrawn due to adverse events during treatment with 600 mg BID 4-[2-(5-amino-1H-pyrazol-4-yl)-4-chlorophenoxy]-5-chloro-2-fluoro-N-(1,3-thiazol-4-yl)benzenesulfonamide).

[8] = target: T1, URAT-1 transporter (Homo sapiens, UniProt Q96S37); test: URAT-1 inhibitor activity: [14C]-uric acid uptake in HEK-URAT1 cells; type: cell-based; settings: [14C]-uric acid (20 μM), 2 minutes, normalised to the standard compound benzbromarone, read-out: inhibition of uric acid uptake (IC50)
T1 construct: expressed in transfected cells; host or cells: HEK293 cells, transient transfection with Lipofectamine 2000
T1 sequence (Q96S37 1-553): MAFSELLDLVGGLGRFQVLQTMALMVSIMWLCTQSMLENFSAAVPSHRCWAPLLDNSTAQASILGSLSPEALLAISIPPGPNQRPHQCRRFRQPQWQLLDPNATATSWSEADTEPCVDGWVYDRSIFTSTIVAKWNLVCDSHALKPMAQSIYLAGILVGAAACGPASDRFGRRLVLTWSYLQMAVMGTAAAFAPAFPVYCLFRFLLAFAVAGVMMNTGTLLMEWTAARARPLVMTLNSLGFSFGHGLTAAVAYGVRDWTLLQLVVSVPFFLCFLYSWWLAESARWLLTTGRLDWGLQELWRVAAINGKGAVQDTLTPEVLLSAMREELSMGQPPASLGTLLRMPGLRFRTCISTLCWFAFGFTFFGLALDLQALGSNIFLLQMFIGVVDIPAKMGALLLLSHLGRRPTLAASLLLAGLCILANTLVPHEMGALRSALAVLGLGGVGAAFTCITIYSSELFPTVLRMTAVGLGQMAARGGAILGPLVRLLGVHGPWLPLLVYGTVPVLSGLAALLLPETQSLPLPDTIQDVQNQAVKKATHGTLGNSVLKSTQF
Description: The potency of 4-[2-(5-amino-1H-pyrazol-4-yl)-4-chlorophenoxy]-5-chloro-2-fluoro-N-(1,3-thiazol-4-yl)benzenesulfonamide as an inhibitor of the URAT-1 transporter was determined as follows.
HEK293 cells were grown in medium consisting of Dulbecco's modified Eagle medium (DMEM) with L-GlutaMax (4.5 g of glucose per litre), supplemented with heat-inactivated foetal calf serum (10% v/v), 100 U/mL penicillin and 100 μg/mL streptomycin. The HEK cells were routinely cultured in 75 cm^2 tissue culture flasks in a humidified incubator at approximately 37° C. in approximately 95% air/5% CO2. […]
One day after transfection, culture medium was removed from the wells and the cells were pre-incubated with 0.2 mL of chlorine-free incubation medium (125 mM Na-gluconate, 4.8 mM K-gluconate, 1.3 mM Ca-gluconate, 1.2 mM KH2PO4, 1.2 mM MgSO4, 5.6 mM D-glucose, 25 mM HEPES, pH 7.4), in the absence and presence of 4-[2-(5-amino-1H-pyrazol-4-yl)-4-chlorophenoxy]-5-chloro-2-fluoro-N-(1,3-thiazol-4-yl)benzenesulfonamide (0-30 μM), for 15 minutes at approximately 37° C. […] The concentrations of [^14C]-uric acid were determined by liquid scintillation counting (LSC). The inhibition of [^14C]-uric acid transport was also determined in the presence of the known inhibitor benzbromarone (30 μM). […]
The amount of radioactivity present in cell lysate samples was determined by liquid scintillation counting (LSC). […]

[9] = TS oral 300 mg BID, elderly subjects, day 6
[10] = TS oral 300 mg BID, elderly subjects, day 14
[11] = TS oral 300 mg BID, healthy subjects, day 6
[12] = TS oral 300 mg BID, healthy subjects, day 14
[13] = TS oral 450 mg BID, healthy subjects, day 6
[14] = TS oral 450 mg BID, healthy subjects, day 14

Which results are given for Cc1ccc(S(=O)(=O)O)cc1.Nc1[nH]ncc1-c1cc(Cl)ccc1Oc1cc(F)c(S(=O)(=O)Nc2cscn2)cc1Cl [TS, 4-[2-(5-amino-1H-pyrazol-4-yl)-4-chlorophenoxy]-5-chloro-2-fluoro-N-(1,3-thiazol-4-yl)benzenesulfonamide tosylate]?
Fraction excreted of uric acid ([1]; TS oral 300 mg BID, elderly subjects, day 1): 6.17%; Fraction excreted of uric acid [1, 9]: 13.79%; Fraction excreted of uric acid [1, 10]: 7.66%; Fraction excreted of uric acid ([1]; TS oral 300 mg BID, healthy subjects, day 1): 8.44%; Fraction excreted of uric acid [1, 11]: 17.41%; Fraction excreted of uric acid [1, 12]: 6.43%; Fraction excreted of uric acid ([1]; TS oral 450 mg BID, healthy subjects, day 1): 8.61%; Fraction excreted of uric acid [1, 13]: 19.81%; Fraction excreted of uric acid [1, 14]: 7.69%; Mean uric acid ([2]; TS oral 300 mg BID for 14 days, elderly subjects, day 0): 5.43 mg/dL; Mean uric acid ([2]; TS oral 300 mg BID for 14 days, healthy subjects, day 0): 5.56 mg/dL; Mean uric acid ([2]; TS oral 300 mg BID, elderly subjects, day 3): 3.41 mg/dL; Mean uric acid [2, 9]: 2.99 mg/dL; Mean uric acid ([2]; TS oral 300 mg BID, elderly subjects, day 8): 3.57 mg/dL; Mean uric acid ([2]; TS oral 300 mg BID, elderly subjects, day 10): 3.37 mg/dL; Mean uric acid [2, 10]: 3.59 mg/dL; Mean uric acid ([2]; TS oral 300 mg BID, healthy subjects, day 3): 3.50 mg/dL; Mean uric acid [2, 11]: 3.23 mg/dL; Mean uric acid ([2]; TS oral 300 mg BID, healthy subjects, day 8): 3.54 mg/dL; Mean uric acid ([2]; TS oral 300 mg BID, healthy subjects, day 10): 3.79 mg/dL; Mean uric acid [2, 12]: 3.78 mg/dL; Mean uric acid ([2]; TS oral 450 mg BID for 14 days, healthy subjects, day 0): 5.89 mg/dL; Mean uric acid ([2]; TS oral 450 mg BID, healthy subjects, day 3): 3.05 mg/dL; Mean uric acid [2, 13]: 3.00 mg/dL; Mean uric acid ([2]; TS oral 450 mg BID, healthy subjects, day 8): 3.21 mg/dL; Mean uric acid ([2]; TS oral 450 mg BID, healthy subjects, day 10): 3.45 mg/dL; Mean uric acid [2, 14]: 3.56 mg/dL; solid form stability ([3]; crystalline form, versus free base): better solid form stability than the free base; stability with regard to disassociation ([3]; versus other salts): greater stability with regard to disassociation than other salts; chemical stability ([3]; with regard to formulation and storage, versus free base): improved chemical stability over the free base; Mean uric acid ([4]; TS oral single dose 200 mg, 0 hours): 5.92 mg/dL; Mean uric acid ([4]; TS oral single dose 200 mg, 48 hours): 5.43 mg/dL; Mean uric acid ([4]; TS oral single dose 600 mg, 0 hours): 6.21 mg/dL; Mean uric acid ([4]; TS oral single dose 600 mg, 48 hours): 5.04 mg/dL; Mean uric acid ([4]; TS oral single dose 1000 mg, 0 hours): 6.40 mg/dL; Mean uric acid ([4]; TS oral single dose 1000 mg, 48 hours): 4.86 mg/dL; aqueous solubility [5]: good aqueous solubility; Fraction excreted of uric acid ([6]; TS oral 300 mg BID, elderly subjects): 13.02%; Fraction excreted of uric acid ([6]; TS oral 300 mg BID, healthy subjects): 14.99%; Fraction excreted of uric acid ([6]; TS oral 450 mg BID, healthy subjects): 17.09%

Which results are given for Nc1[nH]ncc1-c1cc(Cl)ccc1Oc1cc(F)c(S(=O)(=O)Nc2cscn2)cc1Cl [4-[2-(5-amino-1H-pyrazol-4-yl)-4-chlorophenoxy]-5-chloro-2-fluoro-N-(1,3-thiazol-4-yl)benzenesulfonamide]?
excreted fraction of uric acid in urine after dosing ([1]; Day 16): returns to baseline by Day 16; excreted fraction of uric acid in urine during dosing ([1]; TS BID, 24 hour urine): increases during dosing; median blood uric acid concentration versus LLN ([2]; 450 mg BID, Day 3): fell below LLN; Concentrations of uric acid in blood following dosing ([2]; TS BID for 14 days): decreased; median blood uric acid concentration versus LLN ([2]; all cohorts (300 mg and 450 mg BID), Day 6): below the LLN; time until blood uric acid returned to above the LLN after cessation of dosing ([2]; all subjects (i.e. by Day 16)): ≤ 2 days; subjects withdrawn due to adverse events [7]: three; IC50 [8]: 3.54 µM
